# From BindingDB's records for patent US12497392 (Hinova Pharmaceuticals, 2025)
# pIC50: −log10 of the molar value.
# Molecular target: T1, CREB-binding protein [1085-1192] (UniProt Q92793)
# T1 construct: 1085-1192
# Assay: Inhibitory Activity of Compounds on the Bromodomain (BRD) of CBP/EP300
# Experimental: (§1) A. Experimental MethodCBP and EP300AlphaScreen Test:1. Prepare 1× concentration of test buffer2. Preparation of compoundThe compound was firstly diluted in a ratio of 1:1000 relative to the final concentration using a Precision automatic sampler (by 3× gradient dilution method):1) 50 μL of compound solution with a storage concentration of 10 mM was transferred to A2 well of a 96-well plate using an Echo automatic sampler.2) 30 μL of DMSO was transferred to well A1, and wells A3 to A12 with Precision™.3) 15 μL solution was transferred from A2 to A3 by Precision, and this operation was sequentially repeated until 15 μL solution was transferred from well A10 to well A11. Thus, a 1:3 gradient dilution was completed.4) The compound plate was centrifuged at a speed of 1000 r/min for one minute.3. Preparation of test plate20 nL of solution was transferred from each concentration well of the compound plate to the test plate using an Echo automatic sampler: from well A1 of the preparation plate to wells A1 and A2 of the test plate, and from well A2 of the preparation plate to wells A3 and A4 of the test plate.4. Binding test of bromodomain (BRD)1) Preparation of 2-fold solution of protein and polypeptideThe protein and polypeptide were dissolved in a 1× concentration of detection buffer.2) 10 μL of protein and polypeptide solution was transferred to each well in columns 3 to 24 in the test plate, and 10 μL of 1× test buffer was transferred to wells in columns 1 to 2 in the test plate as negative control.3) The test plate was centrifuged at a speed of 1000 r/min for one minute.4) The test plate was incubated at room temperature for 15 min.5) A 2-fold receptor and donor solution was prepared by dissolving acceptor and donor beads with one-fold test buffer.6) 2-fold receptor and donor solutions were transferred to the test plate.15 μL of acceptor and donor solution was added and light was avoided.7) The test plate was centrifuged at a speed of 1000 r/min for one minute and then incubated at room temperature for 60 min.5. The Endpoints were Read in EnSpire and Alpha Modes.6. Curve fitting
# T1 sequence (Q92793 1085-1192): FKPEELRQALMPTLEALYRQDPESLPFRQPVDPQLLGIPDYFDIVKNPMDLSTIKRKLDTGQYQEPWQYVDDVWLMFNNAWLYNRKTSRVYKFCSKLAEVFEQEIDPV
row,SMILES,pIC50
1,"CO[C@H]1CC[C@H](n2c([C@@H]3CCOCC(=O)N3C3=CC(F)C(F)C=C3)nc3cc(C4C(C)=NOC4C)ccc32)CC1 (stereo partly specified) [US12497392, Compound 106]",8.32
2,"COc1cccc(-c2nc3cc(C4C(C)=NOC4C)ccc3n2[C@H]2CC[C@H](OC)CC2)c1C1=CC(F)C(F)C=C1 (stereo partly specified) [US12497392, Compound 141]",7.66
3,"CO[C@H]1C[C@@H](n2c([C@@H]3CCOC(=O)N3C3=CC(F)C(F)C=C3)nc3cc(C4C(C)=NOC4C)ccc32)C1 (stereo partly specified) [US12497392, Compound 143]",8.33

# Molecular target: T2, Histone acetyltransferase p300 [1049-1156] (UniProt Q09472)
# T2 construct: 1049-1156
# T2 sequence (Q09472 whole entry): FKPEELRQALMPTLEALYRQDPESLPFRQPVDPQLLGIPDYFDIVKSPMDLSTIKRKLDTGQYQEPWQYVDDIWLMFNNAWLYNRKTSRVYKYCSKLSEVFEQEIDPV
# Assay: as above
# Experimental: as §1
row,SMILES,pIC50
1,"CO[C@H]1CC[C@H](n2c([C@@H]3CCOCC(=O)N3C3=CC(F)C(F)C=C3)nc3cc(C4C(C)=NOC4C)ccc32)CC1 (stereo partly specified) [US12497392, Compound 106]",8.66
2,"COc1cccc(-c2nc3cc(C4C(C)=NOC4C)ccc3n2[C@H]2CC[C@H](OC)CC2)c1C1=CC(F)C(F)C=C1 (stereo partly specified) [US12497392, Compound 141]",8.02
3,"CO[C@H]1C[C@@H](n2c([C@@H]3CCOC(=O)N3C3=CC(F)C(F)C=C3)nc3cc(C4C(C)=NOC4C)ccc32)C1 (stereo partly specified) [US12497392, Compound 143]",8.57
